# Laboratory results as given in ChEMBL document CHEMBL4177563, “The medicinal chemistry of Chikungunya virus” (Bioorg Med Chem, 2017).
# How the values were obtained:
# [1] = test system: Chikungunya virus; assay: Antiviral activity against Chikungunya virus isolate DRDE-06 infected in African green monkey Vero cells by neutral red dye uptake assay; type: functional, organism-based; details: isolate DRDE-06, Vero
# [2] = Cytotoxicity against African green monkey Vero cells by neutral red dye uptake assay; type: cell-based; details: chlorocebus sabaeus
# [3] = Selectivity index, ratio of CC50 for African green monkey Vero cells to IC50 for Chikungunya virus DRDE-06; type: toxicity; details: read-out: Ratio CC50/IC50
# [4] = test system: Chikungunya virus; assay: Antiviral activity against Chikungunya virus infected in BHK-21 cells by RT-qPCR analysis; type: functional, organism-based
# [5] = test system: Chikungunya virus; assay: Antiviral activity against Chikungunya virus 0611aTw infected in BHK-21 cells by RT-qPCR analysis; type: functional, organism-based
# [6] = test system: Chikungunya virus; assay: Antiviral activity against Chikungunya virus 0810bTw infected in BHK-21 cells by RT-qPCR analysis; type: functional, organism-based
# [7] = Cytotoxicity against BHK21 cells assessed as reduction in cell viability after 16 hrs by CCK-8 assay; type: cell-based, Mesocricetus auratus; details: hamster, BHK-21 cells
# [8] = Selectivity index, ratio of CC50 for BHK-21 cells to EC50 for Chikungunya virus; type: toxicity; details: hamster, read-out: Ratio CC50/EC50
# [9] = Selectivity index, ratio of CC50 for BHK-21 cells to EC50 for Chikungunya virus 0611aTw; type: toxicity; details: hamster, read-out: Ratio CC50/EC50
# [10] = Selectivity index, ratio of CC50 for BHK-21 cells to EC50 for Chikungunya virus 0810bTw; type: toxicity; details: hamster, read-out: Ratio CC50/EC50
# [11] = test system: Chikungunya virus; assay: Antiviral activity against Chikungunya virus infected in human U2OS cells by RT-qPCR analysis; type: functional, organism-based
# [12] = Cytotoxicity against human U2OS cells assessed as reduction in cell viability after 16 hrs by CCK-8 assay; type: cell-based
# [13] = Selectivity index, ratio of CC50 for human U2OS cells to EC50 for Chikungunya virus; type: toxicity; details: read-out: Ratio CC50/EC50
# [14] = test system: Chikungunya virus; assay: Antiviral activity against Chikungunya virus 899 infected in African green monkey Vero-A cells assessed as inhibition of viral-induced cytopathic effect measured on day 7 post infection by MTS/PMS assay; type: functional, organism-based; details: Chikungunya virus, 899, 168 h
# [15] = test system: Chikungunya virus; assay: Antiviral activity against Chikungunya virus LR2006-OPY1 infected in African green monkey Vero-A cells assessed as inhibition of viral-induced cytopathic effect measured on day 7 post infection by MTS/PMS assay; type: functional, organism-based; details: LR2006-OPY1, 168 h
# [16] = test system: Chikungunya virus; assay: Antiviral activity against Chikungunya virus venturini isolate (Italy 2008) infected in African green monkey Vero-A cells assessed as inhibition of viral-induced cytopathic effect measured on day 7 post infection by MTS/PMS assay; type: functional, organism-based; details: 168 h
# [17] = test system: Chikungunya virus; assay: Antiviral activity against Chikungunya virus 899 infected in African green monkey Vero cells assessed as inhibition of virus-induced cytopathogenic effect measured on day 5 post infection by MTS/PMS based microscopic analysis; type: functional, organism-based; details: Chikungunya virus, 899, Vero, 120 h
# [18] = test system: Vero; assay: Cytotoxicity against African green monkey Vero cells assessed as reduction in cell viability measured on day 5 post dose by MTS/PMS based microscopic analysis; details: chlorocebus sabaeus
# [19] = Selectivity index, ratio of CC50 for African green monkey Vero cells to IC50 for Chikungunya virus nsP2 protease; type: toxicity; details: read-out: Ratio CC50/IC50
# [20] = test system: Chikungunya virus; assay: Antiviral activity against Chikungunya virus C347 infected in African green monkey Vero cells assessed as inhibition of viral-induced cytopathic effect after 2 days by microscopic analysis; type: functional, organism-based; details: 48 h
# [21] = test system: Chikungunya virus; assay: Antiviral activity against Chikungunya virus LR2006-OPY1 infected in BHK21 cells after 48 hrs by luciferase reporter gene assay; type: functional, organism-based; details: LR2006-OPY1, BHK-21, 48 h
# [22] = test system: Chikungunya virus; assay: Antiviral activity against Chikungunya virus LR2006-OPY1 infected in human Huh7.5 cells after 48 hrs by luciferase reporter gene assay; type: functional, organism-based; details: LR2006-OPY1, Huh7.5, 48 h
# [23] = Cytotoxicity against BHK21 cells in presence of ATP by Celltiter-Glo assay; type: cell-based, Mesocricetus auratus; details: hamster, BHK-21 cells
# [24] = Cytotoxicity against human Huh7.5 cells in presence of ATP by Celltiter-Glo assay; type: cell-based
# [25] = Selectivity index, ratio of CC50 for BHK21 cells to EC50 for Chikungunya virus; type: toxicity; details: hamster, BHK-21 cells; read-out: Ratio CC50/EC50
# [26] = Selectivity index, ratio of CC50 for human Huh7.5 cells to EC50 for Chikungunya virus; type: toxicity; details: read-out: Ratio CC50/EC50
# [27] = test system: Chikungunya virus; assay: Antiviral activity against Chikungunya virus at 0.006 to 300 uM by cell based luciferase reporter gene assay relative to control; type: functional
# [28] = test system: Chikungunya virus; assay: Antiviral activity against Chikungunya virus LR2006 OPY1 infected in human MRC5 cells after 48 hrs by indirect immunofluorescence analysis; type: functional, organism-based; details: LR2006 OPY1, MRC5, 48 h
compound,measurement,setting,value
COc1c(C)c2c(c(O)c1C/C=C(\C)CCC(=O)O)C(=O)OC2 [MYCOPHENOLIC ACID],IC50,[1],0.1 µM
same,CC50,[2],30 µM
same,selectivity ratio,[3],300
CC(=O)Oc1ccccc1C(=O)Nc1ncc([N+](=O)[O-])s1 [NITAZOXANIDE],EC50,[4],2.96 µM
same,EC50,[5],1.96 µM
same,EC50,[6],4.95 µM
same,CC50 at 16 h,[7],25 µM
same,selectivity ratio,[8],8.45
same,selectivity ratio,[9],12.8
same,selectivity ratio,[10],5.05
same,EC50,[11],3.01 µM
same,CC50 at 16 h,[12],25 µM
same,selectivity ratio,[13],8.31
NC(=O)c1nc(F)cnc1O [FAVIPIRAVIR],EC50,[14],25 µM
same,EC50,[15],25 µM
same,EC50,[16],16 µM
CN1CCN(c2nc(C3=C(c4c[nH]c5ccccc45)C(=O)NC3=O)c3ccccc3n2)CC1 [SOTRASTAURIN],EC50,[17],> 66 µM
same,CC50,[18],66 µM
CN(C)CC1CCn2c(cc3ccc(C4=C(c5cn(C)c6ccccc56)C(=O)NC4=O)cc32)C1 (centres undefined),EC50,[17],> 6 µM
same,CC50,[18],35 µM
O=C(Nc1ccc([N+](=O)[O-])cc1Cl)c1cc(Cl)ccc1O [NICLOSAMIDE],EC50,[4],0.95 µM
same,EC50,[5],0.85 µM
same,EC50,[6],0.9 µM
same,CC50 at 16 h,[7],> 20 µM
same,selectivity ratio,[8],> 21
same,selectivity ratio,[9],> 23.5
same,selectivity ratio,[10],> 22.2
same,EC50,[11],0.36 µM
same,CC50 at 16 h,[12],> 20 µM
same,selectivity ratio,[13],> 55.5
CCOc1ccc(/C=N/NC(=O)C2CC2c2ccc(C(C)(C)C)cc2)cc1OCC (centres undefined),selectivity ratio,[19],14
O=c1cnn([C@@H]2O[C@H](CO)[C@@H](O)[C@H]2O)c(=O)[nH]1 [6-AZAURIDINE],EC50,[20],0.82 µM
Cn1c2ccccc2c2c3c(c4c5ccccc5n(CCC#N)c4c21)CNC3=O [GO-6976],EC50,[17],> 6 µM
same,CC50,[18],6 µM
CCOc1ccc(/C=N/NC(=O)/C=C/Cc2ccc(C(C)(C)C)cc2)cc1OCC,selectivity ratio,[19],32
COc1ccc2cc3[n+](cc2c1OC)CCc1cc2c(cc1-3)OCO2 [BERBERINE],EC50,[21],1.8 µM
same,EC50,[22],1.9 µM
same,CC50,[23],> 100 µM
same,CC50,[24],> 100 µM
same,selectivity ratio,[25],> 55.6
same,selectivity ratio,[26],> 52.6
same,Activity,[27],>85%
NC(=O)c1nccnc1O,EC50,[14],7 µM
CCOC(=O)c1c(C[S+]([O-])c2ccccc2)n(C)c2cc(Br)c(O)c(CN(C)C)c12 (centres undefined),IC50,[28],54.5 µM
